Reference: ChEMBL document CHEMBL1136176, “QSAR study on the affinity of some arylpiperazines towards the 5-HT1A/alpha1-adrenergic receptor using the E-state index” (Bioorg Med Chem Lett, 2003)

Experiments:
Type in all cases: functional, tissue-based
[1] = molecular target: T1, 5-hydroxytryptamine receptor 1A (Rattus norvegicus) (UniProt P19327); assay: Antagonistic activity against 5-hydroxytryptamine 1A receptor in rat cerebral cortex using [3H]-8-OH-DPAT as radioligand.
T1 sequence (whole entry): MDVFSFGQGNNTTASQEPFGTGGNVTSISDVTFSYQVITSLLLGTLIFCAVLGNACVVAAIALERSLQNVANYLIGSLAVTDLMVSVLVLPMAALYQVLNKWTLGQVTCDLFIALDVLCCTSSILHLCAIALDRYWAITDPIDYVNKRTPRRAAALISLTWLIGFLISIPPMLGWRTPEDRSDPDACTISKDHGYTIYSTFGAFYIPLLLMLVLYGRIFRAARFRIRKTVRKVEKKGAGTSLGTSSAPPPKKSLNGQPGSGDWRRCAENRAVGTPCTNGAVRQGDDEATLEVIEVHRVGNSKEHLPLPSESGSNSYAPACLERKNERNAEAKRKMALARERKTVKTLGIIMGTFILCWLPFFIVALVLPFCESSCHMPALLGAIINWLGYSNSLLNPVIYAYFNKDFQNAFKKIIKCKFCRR

[2] = molecular target: T1, 5-hydroxytryptamine receptor 1A (Rattus norvegicus); assay: Antagonistic activity against 5-hydroxytryptamine 1A receptor in rat cerebral cortex using [3H]8-OH-DPAT as radioligand.
[3] = molecular target: Adrenergic receptor alpha-1 (Rattus norvegicus) (UniProt P15823+P23944+P43140); assay: Antagonistic activity against alpha-1 adrenergic receptor in rat cerebral cortex using [3H]prazosin as radioligand.

`Cc1ccccc1N1CCN(CCCCN2CC(=O)N3CCCCC3C2=O)CC1` (stereo unspecified) was tested, and the pK1 [1] was 7.5, the K1 [2] was 32 nM and the K2 [3] was 27 nM. The pK2 [3] was 7.56.
Work on `CCCOC(=O)c1ccccc1N1CCN(CCCN2C(=O)C3CCCCN3C2=O)CC1` (stereo unspecified) yielded a pK1 [1] of 7.34, a K1 [2] of 46 nM and a K2 [3] of 13 nM. It also gave a pK2 [3] of 7.89.
Work on `Cc1ccccc1N1CCN(CCCCN2C(=O)C3CCCN3C2=O)CC1` (stereo unspecified) yielded a pK1 [1] of 7.78, a K1 [2] of 16 nM and a K2 [3] of 7 nM. The pK2 [3] was 8.15.
In the case of `Cc1ccccc1N1CCN(CCCN2CC(=O)N3CCCC3C2=O)CC1` (stereo unspecified), the pK1 [1] is reported as 7.31, the K1 [2] is reported as 48 nM and the K2 [3] is reported as 17 nM. The pK2 [3] was 7.76.
For `CCCCOc1ccccc1N1CCN(CCCN2C(=O)C3CCCN3C2=O)CC1` (stereo unspecified), the pK1 [1] was 7.82, the K1 [2] was 15 nM and the K2 [3] was 6.4 nM. For the same molecule, the pK2 [3] was 8.19.
`O=C1C2CCCCN2C(=O)CN1CCCN1CCN(c2ccccc2C(F)(F)F)CC1` (stereo unspecified) gave a pK1 [1] of 6.75, a K1 [2] of 179 nM and a K2 [3] of 339 nM. It also gave a pK2 [3] of 6.47.
`CC(C)C(=O)Nc1cccc(N2CCN(CCCN3C(=O)C4CCCCN4C3=O)CC2)c1` (stereo unspecified) showed a pK1 [1] of 6.11, a K1 [2] of 776 nM and a K2 [3] of 4430 nM. It also gave a pK2 [3] of 5.35.
Molecule `O=C1C2CCCN2C(=O)CN1CCCCN1CCN(c2ccccc2C(F)(F)F)CC1` (stereo unspecified) has a pK1 [1] of 8.26, a K1 [2] of 5.5 nM and a K2 [3] of 72 nM. The pK2 [3] was 7.14.
Molecule `CCCCOc1ccccc1N1CCN(CCCCN2CC(=O)N3CCCC3C2=O)CC1` (stereo unspecified) has a pK1 [1] of 8.06, a K1 [2] of 8.7 nM and a K2 [3] of 10.5 nM. For the same molecule, the pK2 [3] was 7.98.
For `CCCOC(=O)c1ccccc1N1CCN(CCCCN2CC(=O)N3CCCCC3C2=O)CC1` (stereo unspecified), the pK1 [1] was 7.55, the K1 [2] was 28 nM and the K2 [3] was 392 nM. The pK2 [3] was 6.41.
`Nc1cccc(N2CCN(CCCN3C(=O)C4CCCN4C3=O)CC2)c1` (stereo unspecified) was tested, and the pK1 [1] was 5.93, the K1 [2] was 1180 nM and the K2 [3] was 393 nM. It also gave a pK2 [3] of 6.41.
For `O=C1C2CCCCN2C(=O)N1CCCCN1CCN(c2cccc(Br)c2)CC1` (stereo unspecified), the pK1 [1] was 8.27, the K1 [2] was 5.4 nM and the K2 [3] was 5.9 nM. It also gave a pK2 [3] of 8.23.
In the case of `N#Cc1ccccc1N1CCN(CCCCN2CC(=O)N3CCCCC3C2=O)CC1` (stereo unspecified), the pK1 [1] is reported as 7.82, the K1 [2] is reported as 15 nM and the K2 [3] is reported as 30 nM. It also gave a pK2 [3] of 7.52.
In the case of `CCCNC(=O)c1ccccc1N1CCN(CCCN2CC(=O)N3CCCCC3C2=O)CC1` (stereo unspecified), the pK1 [1] is reported as 5.34, the K1 [2] is reported as 4610 nM and the K2 [3] is reported as 811 nM. The pK2 [3] was 6.09.
`CCCNC(=O)c1ccccc1N1CCN(CCCCN2C(=O)C3CCCCN3C2=O)CC1` (stereo unspecified) showed a pK1 [1] of 6.42, a K1 [2] of 378 nM and a K2 [3] of 521 nM. For the same molecule, the pK2 [3] was 6.28.
In the case of `Cc1ccccc1N1CCN(CCCCN2CC(=O)N3CCCC3C2=O)CC1` (stereo unspecified), the pK1 [1] is reported as 7.92, the K1 [2] is reported as 12 nM and the K2 [3] is reported as 25 nM. For the same molecule, the pK2 [3] was 7.59.
In the case of `Cc1ccccc1N1CCN(CCCN2CC(=O)N3CCCCC3C2=O)CC1` (stereo unspecified), the pK1 [1] is reported as 6.84, the K1 [2] is reported as 143 nM and the K2 [3] is reported as 29 nM. It also gave a pK2 [3] of 7.53.
With `CC(C)C(=O)Nc1cccc(N2CCN(CCCN3CC(=O)N4CCCC4C3=O)CC2)c1` (stereo unspecified) the pK1 [1] was 6.57, the K1 [2] was 266 nM and the K2 [3] was 1440 nM. For the same molecule, the pK2 [3] was 5.84.
For `CCCNC(=O)c1ccccc1N1CCN(CCCN2C(=O)C3CCCN3C2=O)CC1` (stereo unspecified), the pK1 [1] was 6.09, the K1 [2] was 808 nM and the K2 [3] was 608 nM. For the same molecule, the pK2 [3] was 6.22.
Molecule `CCCNC(=O)c1ccccc1N1CCN(CCCCN2CC(=O)N3CCCC3C2=O)CC1` (stereo unspecified) has a pK1 [1] of 5.91, a K1 [2] of 1230 nM and a K2 [3] of 1350 nM. For the same molecule, the pK2 [3] was 5.87.
With `N#Cc1ccccc1N1CCN(CCCCN2C(=O)C3CCCN3C2=O)CC1` (stereo unspecified) the pK1 [1] was 8.4, the K1 [2] was 4 nM and the K2 [3] was 4.9 nM. It also gave a pK2 [3] of 8.31.
In the case of `CCCOC(=O)c1ccccc1N1CCN(CCCN2CC(=O)N3CCCC3C2=O)CC1` (stereo unspecified), the K2 [3] is reported as 12 nM and the pK2 [3] is reported as 7.93.
Work on `CCCCOc1ccccc1N1CCN(CCCCN2C(=O)C3CCCCN3C2=O)CC1` (stereo unspecified) yielded a pK1 [1] of 8.66, a K1 [2] of 2.2 nM and a K2 [3] of 5 nM. It also gave a pK2 [3] of 8.3.
In the case of `CCCOC(=O)c1ccccc1N1CCN(CCCCN2C(=O)C3CCCN3C2=O)CC1` (stereo unspecified), the pK1 [1] is reported as 8.32, the K1 [2] is reported as 4.8 nM and the K2 [3] is reported as 41 nM. It also gave a pK2 [3] of 7.39.
Molecule `N#Cc1ccccc1N1CCN(CCCN2C(=O)C3CCCCN3C2=O)CC1` (stereo unspecified) has a pK1 [1] of 7.19, a K1 [2] of 65 nM and a K2 [3] of 8.2 nM. It also gave a pK2 [3] of 8.09.
Molecule `CC(C)C(=O)Nc1cccc(N2CCN(CCCCN3CC(=O)N4CCCCC4C3=O)CC2)c1` (stereo unspecified) has a pK1 [1] of 6.7, a K1 [2] of 198 nM and a K2 [3] of 16100 nM. For the same molecule, the pK2 [3] was 4.79.
`CCCCOc1ccccc1N1CCN(CCCN2CC(=O)N3CCCCC3C2=O)CC1` (stereo unspecified) showed a pK1 [1] of 7.04, a K1 [2] of 92 nM and a K2 [3] of 13 nM. For the same molecule, the pK2 [3] was 7.89.
Molecule `CC(C)C(=O)Nc1cccc(N2CCN(CCCCN3C(=O)C4CCCN4C3=O)CC2)c1` (stereo unspecified) has a pK1 [1] of 6.72, a K1 [2] of 193 nM and a K2 [3] of 5420 nM. It also gave a pK2 [3] of 5.27.
Molecule `Nc1cccc(N2CCN(CCCCN3C(=O)C4CCCCN4C3=O)CC2)c1` (stereo unspecified) has a pK1 [1] of 7.17, a K1 [2] of 68 nM and a K2 [3] of 231 nM. It also gave a pK2 [3] of 6.64.
In the case of `Cc1ccccc1N1CCN(CCCN2C(=O)C3CCCCN3C2=O)CC1` (stereo unspecified), the pK1 [1] is reported as 6.66, the K1 [2] is reported as 220 nM and the K2 [3] is reported as 5.7 nM. The pK2 [3] was 8.25.
`O=C1C2CCCN2C(=O)N1CCCN1CCN(c2cccc(Br)c2)CC1` (stereo unspecified) gave a pK1 [1] of 7.47, a K1 [2] of 34 nM and a K2 [3] of 25 nM. For the same molecule, the pK2 [3] was 7.61.
In the case of `N#Cc1ccccc1N1CCN(CCCN2CC(=O)N3CCCC3C2=O)CC1` (stereo unspecified), the pK1 [1] is reported as 7.56, the K1 [2] is reported as 27 nM and the K2 [3] is reported as 17 nM. It also gave a pK2 [3] of 7.76.
